Measurements taken from the NIST ThermoML archive (doi:10.1021/acs.jced.7b00466).
Where “and” joins values, the source holds several entries; their conditions need not be identical. Equal values may be shown once.

Assay: an = ratio of the nth substance listed
Settings: for viscosity / speed of sound / mass density: 102 kPa, Liquid; for viscosity: Concentric cylinders viscometry; for speed of sound: Frequency=3 MHz, Sing-around technique in a fixed-path interferometer; for mass density: Vibrating tube method; for surface tension liquid-gas: 294.5 K, Pendant drop shape

CCCCC1CCCCC1 [butylcyclohexane] + CCCCCCCCCCCC
Settings | mass density | speed of sound | viscosity
293.15 K, a2 = 0.3332 | 783.9 kg/m3 | 1317.5 m/s and 1317.3 m/s | 1.34 mPa·s
293.15 K, a2 = 1 | 770.6 kg/m3 | 1309 m/s and 1308.8 m/s | 1.38 mPa·s
293.15 K, a2 = 2.995 | 759 kg/m3 | 1302.4 m/s | 1.44 mPa·s
293.15 K, a2 = 3.001 | 759 kg/m3 | 1302.6 m/s | 1.42 mPa·s
303.15 K, a2 = 0.3332 | 776.5 kg/m3 | 1278.1 m/s and 1278.4 m/s | 1.13 mPa·s
303.15 K, a2 = 1 | 763.3 kg/m3 | 1270.4 m/s and 1270.1 m/s | 1.17 mPa·s
303.15 K, a2 = 2.995 | 751.7 kg/m3 | 1264 m/s | 1.22 mPa·s
303.15 K, a2 = 3.001 | 751.7 kg/m3 | 1264.3 m/s | 1.2 mPa·s
313.15 K, a2 = 0.3332 | 769.1 kg/m3 | 1239.7 m/s and 1239.9 m/s | 0.972 mPa·s and 0.974 mPa·s
313.15 K, a2 = 1 | 755.9 kg/m3 | 1232.3 m/s and 1232 m/s | 1.01 mPa·s and 1 mPa·s
313.15 K, a2 = 2.995 | 744.4 kg/m3 | 1226.2 m/s | 1.04 mPa·s
313.15 K, a2 = 3.001 | 744.4 kg/m3 | 1226.5 m/s | 1.02 mPa·s
323.15 K, a2 = 0.3332 | 761.6 kg/m3 | 1201.8 m/s and 1202 m/s | 0.845 mPa·s and 0.846 mPa·s
323.15 K, a2 = 1 | 748.5 kg/m3 | 1194.8 m/s and 1194.6 m/s | 0.88 mPa·s and 0.865 mPa·s
323.15 K, a2 = 2.995 | 737.1 kg/m3 | 1189 m/s | 0.896 mPa·s
323.15 K, a2 = 3.001 | 737.1 kg/m3 | 1189.3 m/s | 0.883 mPa·s
333.15 K, a2 = 0.3332 | 754.1 kg/m3 | 1164.8 m/s and 1164.7 m/s | 0.743 mPa·s and 0.741 mPa·s
333.15 K, a2 = 1 | 741.1 kg/m3 | 1158.1 m/s and 1157.9 m/s | 0.774 mPa·s and 0.757 mPa·s
333.15 K, a2 = 2.995 | 729.7 kg/m3 | 1152.5 m/s | 0.788 mPa·s
333.15 K, a2 = 3.001 | 729.7 kg/m3 | 1152.9 m/s | 0.77 mPa·s
343.15 K, a2 = 0.3332 | 746.5 kg/m3 | – | 0.656 mPa·s
343.15 K, a2 = 1 | 733.6 kg/m3 and 733.7 kg/m3 | – | 0.686 mPa·s and 0.668 mPa·s
343.15 K, a2 = 2.995 | 722.5 kg/m3 | – | 0.699 mPa·s
343.15 K, a2 = 3.001 | 722.2 kg/m3 | – | 0.678 mPa·s

Settings | surface tension liquid-gas [mN/m]
a2 = 0.3332 | 26.1
a2 = 0.3335 | 26.1
a2 = 0.9998 | 25.8
a2 = 1 | 25.6
a2 = 2.997 | 25.4
a2 = 3.001 | 25.3

CCCCC1CCCCC1 [butylcyclohexane] + CCCCCCCCCCCCCCCC
Settings | mass density [kg/m3] | speed of sound [m/s] | viscosity [mPa·s]
293.15 K, a2 = 0.25 | 791.29 | 1334.4 | 1.68
293.15 K, a2 = 0.3333 | 789.5 | 1335.5 | 1.78
293.15 K, a2 = 0.3335 | 789.61 | 1335.2 | 1.78
293.15 K, a2 = 0.6666 | 785.19 | – | 2.08
293.15 K, a2 = 0.6667 | – | 1339.5 | –
293.15 K, a2 = 0.9992 | 782.68 | 1342.9 | 2.29
293.15 K, a2 = 0.9997 | 782.68 | 1342.9 | 2.29
293.15 K, a2 = 1.5 | 780.35 | 1345.6 | 2.5
293.15 K, a2 = 2.997 | 777.44 | 1349.7 | 2.84
293.15 K, a2 = 3.001 | 777.44 | 1350 | 2.84
293.15 K, a2 = 3.998 | 776.54 | 1350.8 | 2.96
303.15 K, a2 = 0.25 | 784.02 | 1295.9 | 1.4
303.15 K, a2 = 0.3333 | 782.27 | 1297.1 | 1.5
303.15 K, a2 = 0.3335 | 782.37 | 1296.8 | 1.49
303.15 K, a2 = 0.6666 | 778.07 | – | 1.71
303.15 K, a2 = 0.6667 | – | 1301.7 | –
303.15 K, a2 = 0.9992 | 775.6 | 1305.2 | 1.87
303.15 K, a2 = 0.9997 | 775.6 | 1305.2 | 1.87
303.15 K, a2 = 1.5 | 773.33 | 1308.2 | 2.04
303.15 K, a2 = 2.997 | 770.54 | 1312.4 | 2.29
303.15 K, a2 = 3.001 | 770.45 | 1312.7 | 2.29
303.15 K, a2 = 3.998 | 769.57 | 1313.6 | 2.37
313.15 K, a2 = 0.25 | 776.71 | 1257.8 | 1.19
313.15 K, a2 = 0.3333 | 775.01 | 1259.3 | 1.26
313.15 K, a2 = 0.3335 | 775.12 | 1259.1 | 1.26
313.15 K, a2 = 0.6666 | 770.92 | – | 1.44
313.15 K, a2 = 0.6667 | – | 1264.4 | –
313.15 K, a2 = 0.9992 | 768.51 | 1268.2 | 1.56
313.15 K, a2 = 0.9997 | 768.51 | 1268.2 | 1.56
313.15 K, a2 = 1.5 | 766.29 | 1271.3 | 1.69
313.15 K, a2 = 2.997 | 763.47 | 1275.9 | 1.88
313.15 K, a2 = 3.001 | 763.47 | 1276 | 1.88
313.15 K, a2 = 3.998 | 762.61 | 1277 | 1.95
323.15 K, a2 = 0.25 | 769.38 | 1220.2 | 1.03
323.15 K, a2 = 0.3333 | 767.73 | 1222.1 | 1.08
323.15 K, a2 = 0.3335 | 767.83 | 1222 | 1.08
323.15 K, a2 = 0.6667 | 763.75 | 1227.5 | 1.23
323.15 K, a2 = 0.9992 | 761.41 | 1231.8 | 1.33
323.15 K, a2 = 0.9997 | 761.41 | 1231.8 | 1.33
323.15 K, a2 = 1.5 | 759.24 | 1234.9 | 1.42
323.15 K, a2 = 2.997 | 756.48 | 1239.9 | 1.58
323.15 K, a2 = 3.001 | 756.48 | 1240.1 | 1.58
323.15 K, a2 = 3.998 | 755.63 | 1240.9 | 1.62
333.15 K, a2 = 0.25 | 762.02 | 1183.2 | 0.898
333.15 K, a2 = 0.3333 | 760.42 | 1185.7 | 0.942
333.15 K, a2 = 0.3335 | 760.52 | 1185.6 | 0.942
333.15 K, a2 = 0.6667 | 756.56 | 1191.2 | 1.06
333.15 K, a2 = 0.9992 | 754.28 | 1196.2 | 1.14
333.15 K, a2 = 0.9997 | 754.28 | 1196.2 | 1.14
333.15 K, a2 = 1.5 | 752.17 | 1199.1 | 1.22
333.15 K, a2 = 2.997 | 749.48 | 1204.7 | 1.34
333.15 K, a2 = 3.001 | 749.49 | 1205 | 1.34
333.15 K, a2 = 3.998 | 748.65 | 1205.4 | 1.38
343.15 K, a2 = 0.25 | 754.6 | – | 0.789
343.15 K, a2 = 0.3333 | 753.1 | – | 0.827
343.15 K, a2 = 0.3335 | 753.2 | – | 0.821
343.15 K, a2 = 0.6667 | 749.4 | – | 0.926
343.15 K, a2 = 0.9992 | 747.2 | – | 0.991
343.15 K, a2 = 0.9997 | 747.2 | – | 0.991
343.15 K, a2 = 1.5 | 745.1 | – | 1.06
343.15 K, a2 = 2.997 | 742.5 | – | 1.16
343.15 K, a2 = 3.001 | 742.5 | – | 1.16
343.15 K, a2 = 3.998 | 741.4 | – | 1.19

Settings | surface tension liquid-gas [mN/m]
a2 = 0.25 | 26.6
a2 = 0.3333 | 26.7
a2 = 0.3335 | 26.9
a2 = 0.6667 | 26.9
a2 = 0.9992 | 26.9
a2 = 0.9997 | 26.9
a2 = 1.5 | 26.9
a2 = 2.997 | 27.1
a2 = 3.001 | 27
a2 = 3.998 | 27
